Assay results reported in patent publication US9840470B2, “Targeting GLI proteins in human cancer by small molecules” (The Regents of the University of California, priority 2013, dated 2017).

Key:
[1] = tested on: melanoma MelJuso; assay: In vivo efficacy, mouse xenograft model (melanoma MelJuso); details: for tumor growth: 50 mg/kg body weight i.p. daily for 14 days, from 13 days after inoculation; for tumor weight (FIG. 1): melanoma MelJuso xenograft, after treatment
Protocol: (§1) The administered compounds were tested in vivo in the mouse xenograft model bearing human cancer cells. Briefly, female athymic nude mice strain NCRNU-M (5-10 weeks old, 20-25 grams in weight; Taconic, Germantown, N.Y.) was maintained in pathogen-free conditions. Three human cancer cell lines: NSCLC A549, melanoma MelJuso, and mesothelioma MS-1 were used. Five or ten mice were used in each group and injected s.c. with 3×10^6 cancer cells in the dorsal area in a volume of 100 μl. After inoculation, human cancer cells were allowed to grow in mice for 10-13 days to become visible tumor nodules. Animals were then injected with a compound of the embodiments at a dose of 50 mg/kg body weight (1 mg/mouse per day). Vehicle alone was used as control. The compounds and controls were adjusted in 40 ul volume for i.p. injection in the abdomens of the mice. Injections were performed daily around the same time for 14 days. Tumors were allowed to grow for 1-2 additional weeks after completion of the compound treatments. Tumor size was measured every three to four days, and tumor volumes were calculated using width (x) and length (y) (x^2y/2, where x<y). Throughout this period, general toxicity of the treatments was also monitored by measuring body weight of the mice. Data was presented as mean values (±S.D.).
In vivo efficacy study of Compounds 1, 2, 4, and 6 were performed using a Mouse Xenograft Model (Melanoma MelJuso). Mice were injected s.c. with 3×10^6 cells in the dorsal area in a volume of 100 μl. 13 days after inoculation, the mice started receiving treatments with the administered compound at a dose of 50 mg/kg body weight daily for 14 days (n=10). Vehicle alone was used as control (n=10). The administered compounds and vehicle were adjusted in a volume of 40 μl for i.p. injection in the abdomens of the mice. Tumor size and tumor volumes were calculated as described above.

[2] = tested on: mesothelioma MS-1; assay: In vivo efficacy, mouse xenograft model (mesothelioma MS-1); details: 50 mg/kg body weight i.p. daily for 14 days, from ten days after inoculation
Protocol: as §1, with “Tumors were allowed to grow for 1-2 additional weeks after completion of the compound treatments.” left out, “Data was presented as mean values (±S.D.).” left out
In vivo efficacy study of Compounds 1 and 4 were performed using a Mouse Xenograft Model (Mesothelioma MS-1). […] Tumor sizes was measured twice weekly until the completion of the experiments. […]

[3] = tested on: NSCLC A549; assay: In vivo efficacy, mouse xenograft model (lung cancer A549); details: 50 mg/kg i.p. daily for 14 days, then 50 mg/kg daily for 1x7 days; tumors weighed 43 days after inoculation
Protocol: as §1, with “Tumors were allowed to grow for 1-2 additional weeks after completion of the compound treatments.” left out, “Data was presented as mean values (±S.D.).” left out
In vivo efficacy study of Compounds 1 and 4 in Mouse Xenograft Model (NSCLC A549) was examined. […] 43 days after the initial tumor inoculation, tumors were dissected from the mice of each group and their weights were measured using a scale. […]

[4] = tested on: Hedgehog signaling pathway; assay: Quantitative RT-PCR of Hh pathway genes in xenograft tumors; format: in vivo, mouse; details: Melanoma tumor (MelJuso), pooled tumor from two mice
Protocol: (§2) Total RNA was isolated using Qiagen RNeasy Mini Kit (Valencia, Calif.). Hybridization probes and primers (Table 1) were purchased from Applied Biosystems (ABI, Foster City, Calif.). cDNA synthesis and Taqman® PCR were performed according to the manufactures' protocols. The gene expression was assayed in triplicate in ABI 7300 Real-time PCR System. Samples were normalized to their housekeeping gene GAPDH and then calculated by using 2^−dct method.
To examine whether Compounds 1, 2, 4, and 6 suppressed tumor growth through inhibition of the Hedgehog signaling pathway in vivo, expression of the key components and direct target genes of the Hh pathway (e.g. Gli1, Gli2, Gli3, HHIP and Cyclin D1) were analyzed by quantitative real-time RT-PCR using total RNA isolated from the xenograft tumors. GAPDH served as a control. This RT-PCR analysis was performed using a “pooled” tumor from two randomly selected mice of each group with reasonable size tumors. […] The results are shown in FIG. 4, where C is control and V is vehicle.

[5] = tested on: Wnt signaling pathway; assay: Quantitative RT-PCR of canonical Wnt pathway genes in xenograft tumors; format: in vivo, mouse; details: Melanoma tumor, pooled tumor from two mice, compared to controls
Protocol: as §2
To examine whether Compounds 1, 2, 4, and 6 suppressed tumor growth through inhibition of the Wnt signaling pathway in vivo, expression of the key components and direct target genes of the Wnt pathway (e.g. Wnt2, Axin2, EGFR, and Cyclin D1) were analyzed by quantitative real-time RT-PCR using total RNA isolated from the xenograft tumors. GAPDH served as a control. This RT-PCR analysis was performed using a “pooled” tumor from two randomly selected mice of each group with reasonable size tumors. […] The results are shown in FIG. 4, where C is control and V is vehicle.

[6] = Preliminary in vivo toxicity: leukocyte population and body weight after treatment; set-up: species or system mouse; details: for changes of leukocyte population: at completion of the in vivo studies; for loss of body weight: during the course of drug administration
Protocol: as §1
(§3) After the in vivo studies were completed, different organs were resected from mice. These organs included liver, lung, heart, kidney, intestines, ovary, brain, spleen, skin, and muscle. The specimens were fixed in 4% buffered formaldehyde, embedded in paraffin, sectioned, and histologically analyzed by hematoxylin and eosin (HE) staining. The HE stained slides were examined by a mouse pathologist for toxicity evidence from all the organs as compared with vehicle controls. In addition, leukocytes (WBC: white blood cell, NE: neutrophil, LY: lymphocyte, MO: monocyte, EO: eosinophil, BA: basophil) from each animal from all treatment groups were collected and leukocyte population was counted through a blood cell counter.
(§4) As preliminary in vivo toxicity study of Compounds 1, 2, 4, and 6, it was examined if there were changes of leukocyte population and loss of body weight in the mice after the treatment. At the completion of the in vivo studies as described herein, leukocytes (WBC: white blood cell, NE: neutrophil, LY: lymphocyte, MO: monocyte, EO: eosinophil, BA: basophil) from each animal from all treatment groups were collected and leukocyte population was counted through a blood cell counter. Body weights of control groups (n=10) and the treated group (n=10) were measured using a scale during the course of drug administration. […] In an additional toxicity study, effect of different doses of compounds 4 and 6 on the body weight of mice was examined. The compounds were i.p. injected in the abdomens at 3 different doses: 25, 50, and 100 mg/kg body weight to mice (3 mice per dosing group) for 6 consecutive days.

[7] = Additional toxicity study: body weight at different doses; format: in vivo, mouse; details: i.p. 25, 50, and 100 mg/kg body weight for 6 consecutive days
Protocol: Each dosing group contained 3 mice. The body weight of mice was measured using a scale. Results are the means±SD (error bars).
as §4

[8] = Histological (H&E) examination of mouse organs for toxicity; format: in vivo; details: i.p. two doses daily for 6 days; liver, spleen, kidney, heart
From the text: as §3
To analyze toxicity of the Compounds 1, 2, 4, and 6 in vivo, each group (three mice) was i.p. injected with two doses of each Compound daily for 6 days, and then major mouse organs, such as liver, spleen, kidney, and heart were resected from the mice.

[9] = tested on: human NSCLC cell lines; assay: Combination treatment with chemotherapies, MTS proliferation assay, lung cancer cells; format: cell-based; details: 72 hours, Combination Index
From the text: (§5) Another assay for determining the number of viable cells in proliferation or cytotoxicity assays is the MTS assay, a colorimetric method. MTS assay reagents are commercially available (Promega Corp., Madison, Wis.). The reagent contains a tetrazolium compound [3-(4,5-dimethylthiazol-2-yl)-5-(3-carboxymethoxyphenyl)-2-(4-sulfophenyl)-2H-tetrazolium, inner salt; MTS] and an electron coupling reagent (phenazine ethosulfate; PES). PES has enhanced chemical stability, which allows it to be combined with MTS to form a stable solution. The MTS tetrazolium compound (Owen's reagent) is bioreduced by cells into a colored formazan product that is soluble in tissue culture medium. This conversion may be accomplished by NADPH or NADH produced by dehydrogenase enzymes in metabolically active cells. The quantity of formazan product as measured by the absorbance at 490 nm is directly proportional to the number of living cells in culture. Because the MTS formazan product is soluble in tissue culture medium, this assay requires fewer steps than procedures that use tetrazolium compounds such as MTT. The formazan product of MTT reduction is a crystalline precipitate that requires an additional step in the procedure to dissolve the crystals before recording absorbance readings at 570 nm.
(§6) Combination treatments of the Compounds with several chemotherapies: erlotinib (Tarceva®), PI3K inhibitor LY294002, TGFβ inhibitor SB431542, and pemetrexed (Alimta®) were performed in human NSCLC and MM cell lines (FIGS. 12-17). In all experiments, NSCLC and MM cell lines were treated with different doses of each compound or combination for 72 hours, and MTS assays were performed to determine the cell proliferations. Combination Index (CI), calculated by CalcuSyn software (Biosoft, Cambridge, UK), was applied to describe the effect of the combination effects of two compounds, where CI<1 indicates Synergism, CI=1 indicates Additive effects, and CI>1 indicates Antagonism. Student's t-tests were applied for statistical analysis.

[10] = tested on: human MM cell lines (mesothelioma cells); assay: Combination treatment with chemotherapies, MTS proliferation assay, mesothelioma cells; format: cell-based; details: 72 hours, Combination Index
From the text: as §5, §6

Question: With `CCCC1C(C(=O)NCCCC(C)(C)CO)C(c2ccc(F)cc2)=NN1c1ccccc1` (stereo not drawn) [Compound 4, 3-(4-fluoro-phenyl)-1-phenyl-5-propyl-4,5-dihydro-1H-pyrazole-4-carboxylic acid (5-hydroxy-4,4-dimethyl-pentyl)-amide] as the compound, how does the tumor growth [1] read?
Answer: dramatically suppressed

Question: And the “tumor weight (FIG. 1)” value [1]?
Answer: significantly decreased

Question: And the “tumor weight compared to the control group” value [2]?
Answer: decreased

Question: And the “tumor weight compared to the control group” value [3]?
Answer: decreased

Question: What about the “Hh signaling (expression of Gli1, Gli2, Gli3, HHIP, Cyclin D1)” value (shortened to “Hh signaling”) [4] of the same compound?
Answer: inhibited

Question: What about the “expression of the key indicator of the canonical Wnt activation” value (shortened to “expression … of the canonical Wnt activation”) [5] of the same compound?
Answer: significantly down-regulated

Question: What about the “changes of leukocyte population” value [6] of the same compound?
Answer: No noticeable changes of leukocyte population

Question: And the “loss of body weight” value [6]?
Answer: No noticeable changes of leukocyte population or loss of the body weight

Question: What about the “loss of body weight” value [7] of the same compound?
Answer: no noticeable loss of the body weight

Question: And the “toxicity in organs (H&E histology)” value [8]?
Answer: No noticeable toxicity

Question: And the “combination effect with erlotinib (Tarceva)” value [9]?
Answer: synergy

Question: What about the “combination effect with erlotinib (Tarceva)” value [10] of the same compound?
Answer: synergy

Question: For `CC(C)(CO)CCCNC(=O)C1C(c2ccccc2)=NN(c2ccccc2)C1c1ccsc1` (stereo not drawn) [Compound 1, 1,3-diphenyl-5-thiophen-3-yl-4,5-dihydro-1H-pyrazole-4-carboxylic acid (5-hydroxy-4,4-dimethyl-pentyl)-amide], which tumor growth [1] is on record?
Answer: dramatically suppressed

Question: And the “tumor weight (FIG. 1)” value [1]?
Answer: significantly decreased

Question: What about the “tumor weight compared to the control group” value [2] of the same compound?
Answer: decreased

Question: What about the “tumor weight compared to the control group” value [3] of the same compound?
Answer: decreased

Question: And the “Hh signaling” value [4]?
Answer: inhibited

Question: And the “expression … of the canonical Wnt activation” value [5]?
Answer: significantly down-regulated

Question: What about the “changes of leukocyte population” value [6] of the same compound?
Answer: No noticeable changes of leukocyte population

Question: What about the “loss of body weight” value [6] of the same compound?
Answer: No noticeable changes of leukocyte population or loss of the body weight

Question: What about the “toxicity in organs (H&E histology)” value [8] of the same compound?
Answer: No noticeable toxicity

Question: For `O=C(NCc1ccc(O)cc1)C1C(c2ccccc2)=NN(c2ccccc2)C1c1ccccc1` (stereo not drawn) [Compound 2, 1,3,5-triphenyl-4,5-dihydro-1H-pyrazole-4-carboxylic acid 4-hydroxy-benzylamide], which tumor growth [1] is on record?
Answer: dramatically suppressed

Question: What about the “tumor weight (FIG. 1)” value [1] of the same compound?
Answer: significantly decreased

Question: And the “Hh signaling” value [4]?
Answer: inhibited

Question: And the “expression … of the canonical Wnt activation” value [5]?
Answer: significantly down-regulated

Question: And the “changes of leukocyte population” value [6]?
Answer: No noticeable changes of leukocyte population

Question: What about the “loss of body weight” value [6] of the same compound?
Answer: No noticeable changes of leukocyte population or loss of the body weight

Question: And the “toxicity in organs (H&E histology)” value [8]?
Answer: No noticeable toxicity

Question: For `CC(C)(CO)CCCNC(=O)C1C(c2ccc(F)cc2)=NN(c2ccccc2)C1c1cccc(F)c1` (stereo not drawn) [Compound 6, 3-(4-fluoro-phenyl)-5-(3-fluoro-phenyl)-1-phenyl-4,5-dihydro-1H-pyrazole-4-carboxylic acid (5-hydroxy-4,4-dimethyl-pentyl)-amide], which tumor growth [1] is on record?
Answer: dramatically suppressed

Question: What about the “tumor weight (FIG. 1)” value [1] of the same compound?
Answer: significantly decreased

Question: What about the “Hh signaling” value [4] of the same compound?
Answer: inhibited

Question: And the “changes of leukocyte population” value [6]?
Answer: No noticeable changes of leukocyte population

Question: And the “loss of body weight” value [6]?
Answer: No noticeable changes of leukocyte population or loss of the body weight

Question: What about the “loss of body weight” value [7] of the same compound?
Answer: no noticeable loss of the body weight

Question: And the “toxicity in organs (H&E histology)” value [8]?
Answer: No noticeable toxicity

Question: And the “combination effect with PI3K inhibitor LY294002” value [9]?
Answer: synergy

Question: What about the “combination effect with TGFβ inhibitor SB431542” value [9] of the same compound?
Answer: synergy

Question: What about the “combination effect with PI3K inhibitor LY294002” value [10] of the same compound?
Answer: synergy

Question: And the “combination effect with pemetrexed (Alimta)” value [10]?
Answer: synergy
